From US20090221819A1, “FLUORESCENT COMPOUNDS AND USE OF SAID COMPOUNDS IN MULTIPHOTON METHODS OR DEVICES” (priority 2005, published 2009)

What was measured:
Assay type in all cases: physicochemical
[1] = absorption and photoluminescence characteristics (absorption and fluorescence emission spectra, quantum efficiency, lifetime); settings: in toluene; for Φ, fluorescence quantum efficiency: determined with respect to fluorescein in NaOH 0.1N
Protocol: The absorption and photoluminescence characteristics of the 4 compounds of which the syntheses are described above were evaluated.
λabs represents the maximum absorption wavelength of the compound,
λem represents its maximum emission wavelength,
(§1) Φ represents its fluorescence quantum efficiency, determined with respect to the fluorescein in NaOH 0.1N, σ2 represents its effective TPA cross-section (in GM, with 1 GM=10^−50 cm^4.s.photon^−1); the TPEF measurements were performed with a titanium-sapphire laser in locked mode generating pulses of ˜80 fs at 80 MHz, by calibrating with fluorescein),
τ represents its fluorescence lifetime (also called the fluorescent decrease time).

[2] = two-photon absorption (TPA) cross-sections determined by two-photon excitation fluorescence (TPEF); settings: for σ2, effective TPA cross-section at 700 nm / σ2, effective TPA cross-section at 990 nm / σ2, effective TPA cross-section at 750 nm: in toluene; for σ2, effective TPA cross-section at 700 nm / σ2, effective TPA cross-section at 990 nm: 10^−4 M
Protocol: The TPA spectra of the […] synthesized compounds (LP42, LP52, CL64, CL108, MC237 and MC263) as well as the reference boron dipyrromethene CL76 were also determined in the near-infrared ([…]) by studying their two-photon excitation fluorescence (TPEF), and are shown in FIG. 9.
The measurements were taken in toluene solutions of 10^−4 M, using a titanium-sapphire laser in locked mode generating pulses of ˜80 fs at 80 MHz.
The quadratic dependence of the fluorescence intensity with the excitation intensity was verified for each point of measurement. The calibration is done with respect to the effective TPEF cross-sections of the fluorescein in water (pH=11), which were determined absolutely in the former literature in the range of 690-1000 nm.
This method provides access to the effective TPEF cross-sections (σ2φ), from which the corresponding effective TPA cross-sections (σ2) are deduced. The data in the literature for compound PM556 are added for comparison.
as §1

water solubility = assay: water solubility

Compound	ε, molar extinction coefficient [1] [M⁻¹ cm⁻¹]	λabs, maximum absorption wavelength [1] [nm]	λem, maximum emission wavelength [1] [nm]	τ, fluorescence lifetime [1] [ns]	Φ, fluorescence quantum efficiency [1]	effective TPA cross-section relative to model CL76 at 750 nm ([2]; at 750 nm, ratio to CL76)	σ2, effective TPA cross-section at 700 nm [2] [GM]	σ2, effective TPA cross-section at 990 nm [2] [GM]	σ2, effective TPA cross-section at 750 nm ([2]; at 750 nm) [GM]	effective TPA cross-section relative to model CL76 at 700 nm ([2]; ratio to CL76) [times]	effective TPA cross-section relative to model CL76 at 990 nm ([2]; ratio to CL76) [times]	water solubility (water solubility)
CCC1=C(C)C2=C(c3ccc(-c4cn(-c5ccc(C#Cc6ccc(N(c7ccc(C#Cc8ccc(-n9cc(-c%10ccc(C%11=C%12C(C)=C(CC)C(C)=[N+]%12[B-](F)(F)n%12c(C)c(CC)c(C)c%12%11)cc%10)nn9)cc8)cc7)c7ccc(C#Cc8ccc(-n9cc(-c%10ccc(C%11=C%12C(C)=C(CC)C(C)=[N+]%12[B-](F)(F)n%12c(C)c(CC)c(C)c%12%11)cc%10)nn9)cc8)cc7)cc6)cc5)nn4)cc3)c3c(C)c(CC)c(C)n3[B-](F)(F)[N+]2=C1C [MC263]	211100	528	542	4.36	1	18	185	40	270	–	–	–
CCC1=C(C)C2=C(c3ccc(C#Cc4ccc(N(c5ccc(C#Cc6ccc(C7=C8C(C)=C(CC)C(C)=[N+]8[B-](F)(F)n8c(C)c(CC)c(C)c87)cc6)cc5)c5ccc(C#Cc6ccc(C7=C8C(C)=C(CC)C(C)=[N+]8[B-](F)(F)n8c(C)c(CC)c(C)c87)cc6)cc5)cc4)cc3)c3c(C)c(CC)c(C)n3[B-](F)(F)[N+]2=C1C [CL64]	221700	528	543	4.02	0.93	–	190	45	–	9	–	–
CCC1=C(C)C2=C(c3ccc(-c4ccc(C5=C6C(C)=C(CC)C(C)=[N+]6[B-](F)(F)n6c(C)c(CC)c(C)c65)cc4)cc3)c3c(C)c(CC)c(C)n3[B-](F)(F)[N+]2=C1C [LP42, tetrafluoro[1-[2,2′-[(1,1′-biphenyl)-4,4′-diylbis[[4-ethyl-3,5-dimethyl-2H-pyrrol-2-ylidene-]methylene]]bis[4-ethyl-3,5-dimethyl-1H-pyrrolato]]]diboron]	161900	527	542	4.76	0.72	–	57	48	–	3	2.5	–
CC1=C(S(=O)(=O)[O-])C(C)=[N+]2C1=C(c1ccc(C#Cc3ccc(-c4cc(-c5ccc(C#Cc6ccc(C7=C8C(C)=C(S(=O)(=O)[O-])C(C)=[N+]8[B-](F)(F)n8c(C)c(S(=O)(=O)[O-])c(C)c87)cc6)cc5)cc(-c5ccc(C#Cc6ccc(C7=C8C(C)=C(S(=O)(=O)[O-])C(C)=[N+]8[B-](F)(F)n8c(C)c(S(=O)(=O)[O-])c(C)c87)cc6)cc5)c4)cc3)cc1)c1c(C)c(S(=O)(=O)[O-])c(C)n1[B-]2(F)F.[Na+].[Na+].[Na+].[Na+].[Na+].[Na+] [MC297]	–	–	–	–	–	–	–	–	–	–	–	perfectly water-soluble
|4-ethyl-2-|(4-ethyl-3,5-dimethyl-2H-pyrrol-2-ylidene)phenyl methyl|-3,5-dimethyl-1H-pyrrolato|difluoroboron [CL76, reference compound]	76180	527	539	–	0.75	–	20	20	15	–	–	–
CCC1=C(C)C2=C(c3ccc(-c4cc(-c5ccc(C6=C7C(C)=C(CC)C(C)=[N+]7[B-](F)(F)n7c(C)c(CC)c(C)c76)cc5)cc(-c5ccc(C6=C7C(C)=C(CC)C(C)=[N+]7[B-](F)(F)n7c(C)c(CC)c(C)c76)cc5)c4)cc3)c3c(C)c(CC)c(C)n3[B-](F)(F)[N+]2=C1C [LP52, hexafluoro[μ3-[2,2′2″-[1,3,5-benzenetriyltris[4,1-phenylene[[4-ethyl-3,5-dimethyl-2H-pyrrol-2-ylidene]methylene]]tris[4-ethyl-3,5-dimethyl-1H-pyrrolato]]]]triboron]	244300	527	542	4.78	0.69	–	82	75	–	4	3.75	–
CCC1=C(C)C2=C(c3ccc(C#Cc4ccc(-c5cc(-c6ccc(C#Cc7ccc(C8=C9C(C)=C(CC)C(C)=[N+]9[B-](F)(F)n9c(C)c(CC)c(C)c98)cc7)cc6)cc(-c6ccc(C#Cc7ccc(C8=C9C(C)=C(CC)C(C)=[N+]9[B-](F)(F)n9c(C)c(CC)c(C)c98)cc7)cc6)c5)cc4)cc3)c3c(C)c(CC)c(C)n3[B-](F)(F)[N+]2=C1C [MC237]	216400	528	544	3.95	0.89	–	93	34	–	4	–	–
